Measurements from ChEMBL document CHEMBL4145610, “Total Syntheses of Lobaric Acid and Its Derivatives from the Antarctic Lichen Stereocaulon alpinum” (J Nat Prod, 2018).

molecular target: T1, Tyrosine-protein phosphatase non-receptor type 1 (Homo sapiens, UniProt P18031); experiment: Inhibition of PTP1B (1 to 298 residues) (unknown origin) using p-nitrophenylphosphate as substrate after 30 mins
T1 sequence (P18031 whole entry): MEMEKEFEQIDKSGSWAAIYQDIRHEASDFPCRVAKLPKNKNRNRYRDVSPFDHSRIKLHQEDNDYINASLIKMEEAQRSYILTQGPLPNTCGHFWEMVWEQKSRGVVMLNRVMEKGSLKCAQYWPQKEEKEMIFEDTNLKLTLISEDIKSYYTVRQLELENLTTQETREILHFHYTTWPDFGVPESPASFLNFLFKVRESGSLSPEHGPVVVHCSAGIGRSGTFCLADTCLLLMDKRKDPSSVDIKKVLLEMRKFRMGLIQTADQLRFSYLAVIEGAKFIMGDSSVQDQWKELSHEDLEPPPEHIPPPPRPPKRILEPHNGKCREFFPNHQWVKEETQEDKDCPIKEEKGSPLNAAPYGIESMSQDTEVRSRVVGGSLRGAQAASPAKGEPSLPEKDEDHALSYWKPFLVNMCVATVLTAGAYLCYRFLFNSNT

Point of comparison: CCCCCc1c2c(cc(O)c1C(=O)O)OC(=O)c1c(cc(OC)cc1C(=O)CCCC)O2 [LOBARIC ACID], IC50 800 nM. Against it:
- CCC/C=C1\OC(=O)c2c(Oc3c(O)cc(O)c(C(=O)O)c3CCCCC)cc(OC)cc21 — 1.6-fold lower, 500 nM
- CCCCCc1cc(O)cc(O)c1Oc1cc(OC)cc2c1C(=O)OC2(O)CCCC (stereo not given) [SAKISACAULON A] — 2.1-fold higher, 1700 nM
- CCCCCc1c(Oc2cc(OC)cc3c2C(=O)OC3(CCCC)OC)c(O)cc(O)c1C(=O)O (stereo not given) — 1.9-fold higher, 1500 nM
- CCCCCc1c(Oc2cc(OC)cc3c2C(=O)OC3(O)CCCC)c(O)cc(O)c1C(=O)O (stereo not given) — within 1.5-fold, 900 nM
